According to patent US9163018B2, “Method of treatment of age-related macular degeneration (AMD)” (Prana Biotechnology Limited, priority 2006, dated 2015):

How the values were obtained:
[1] = test system: M17 human neuroblastoma cells; test: Cytotoxicity, M17 human neuroblastoma cells; type: cell-based; conditions: for Cytotox (% viable) M17 cells at 1 μM: 1 μM test compound; for Cytotox (% viable) M17 cells at 10 μM: 10 μM test compound
Protocol: (§1) Assay 3. MTS Assay for Cell Viability
(§2) Cell viability is determined using the MTS assay. Culture medium is replaced with fresh neurobasal medium plus B27 supplements minus antioxidants. 1/10th volume MTS solution (Cell Titre 96 Aqueous One, Promega Corporation) and incubated at 37° C., 2 hrs. 200 microliter aliquots are measured with a spectrophotometer at 560 nm.

[2] = target: T1, Abeta:Zn (25:50 μM) Synthetic Aggregations (Homo sapiens, UniProt P05067); test: Disaggregation of Abeta:Zn synthetic aggregates (ThT fluorescence); type: biochemical; conditions: for Disaggregation % Aggregate reduction at 5 μM: 5 μM test compound; for EC50: Abeta:Zn 25:50 μM aggregates
T1 construct: PB Compound Mediated Dissolution of Aggregated Abeta 1-42; purchased Keck Laboratory, Yale University School of Medicine
Protocol: PB Compound Mediated Dissolution of Aggregated Abeta 1-42
Abeta1-42, is available from the Keck Laboratory, Yale University School of Medicine. PBS (pH 6.6): Sigma Cat# D-8662. Zn(ZnCl2): BDH Cat#100884E. (Dissolved in water in 1 mM concentration) DMSO: Ajax Cat#2225. Thioflavin T: Sigma Cat# T-3516. (Dissolved in water in 1 mM concentration)
By way of example of an amyloid composition, Abeta is dissolved in distilled water and peptide concentration is assessed by measured absorption at 214 nm in UV spectrometer. An aggregation reactive mixture (per one concentration of one testing compound) is set us as follows: Abeta: 25 μM, ZnCl2 50 μM, ThT 50 μM, PBS to make up to 500 μl. The tube is wrapped with foil and incubated at 37 degrees by rotation for 24 hours. A serial dilution of each test compound is made up in DMSO, for example: 100 μM, 500 μM, 1000 μM, 2500 μM and 5000 μM. The final concentrations are 1, 5, 10, 25 and 50 μM, 5 μl of each of these compounds is placed in a centrifuge tube and 5 μl of DMSO is added to both negative and positive control tubes. 495 μl of aggregates (after 24 hours incubation) is added to the centrifuge tube. The negative control is PBS plus ZnCl2 and ThT and DMSO. The positive control is aggregates plus DMSO. The tubes are incubated at 37 degrees for further 2 hours with rotation. Samples are measured for ThT fluorescence using an LS55 (Perkin Elmer) fluorimeter in a cuvette (500 μl volume). The excitation wavelength is 450 nm and the emission wavelength is 480 nm. Data are analyzed using graph pad prism program. The tested compounds included so called “PB” compounds.

Aβ 1-42 = target: T2, Aβ 1-42 (Homo sapiens, UniProt P05067); test: Fluorometric H2O2 assay (inhibition of Abeta H2O2 production); type: biochemical; conditions: concentration required to inhibit 50% of Abeta H2O2 production; read-out: H2O2 IC50
T2 construct: The reaction solutions contained Aβ 1-42 at concentrations
Protocol: Assay 1. Fluorometric H2O2 Assay
A fluorometric assay was used to test the ability of a test compound to inhibit hydrogen peroxide generation by Aβ in the presence of copper based on dichlorofluoroscein diacetate (DCF; Molecular Probes, Eugene Oreg.). The DCF solution (5 mM) in 100% dimethyl sulphoxide (previously purged with argon for 2 hr at 20° C.) was deacetylated in the presence of 0.25M NaOH for 30 min and neutralized at pH 7.4 to a final concentration of 1 mM. Horseradish peroxidase (HRP) stock solution was prepared to 1 μM at pH 7.4. The reactions were carried out in PBS, pH 7.4 in a 96 well plate (total volume=250 μl/well). […] The reaction mixture was incubated at 37 C for 60 min. […] H2O2 concentration may be established by comparing fluorescence with the H2O2 standards, Inhibition of Aβ H2O2 production was assayed by including a given concentration of test compound(s) in the test wells.

[3] = test system: primary cortical neuronal cultured cells; test: Test compound cytotoxicity, MTS assay, primary cortical neuronal cultures; type: cell-based, mouse; conditions: for Cytotox (% viable) Neuronal cells at 1 μM: 1 μM test compound; for Cytotox (% viable) Neuronal cells at 10 μM: 10 μM test compound
Protocol: Assay 2. Neurotoxicity Assays
Primary Cortical Neuronal Cultures
Media was then replaced with Neurobasal media (Invitrogen Life Technologies) and B27 supplements (Invitrogen Life Technologies). Cultures were maintained at 37° C. in 5% CO2. Prior to experimentation, the culture medium was replaced with Neurobasal media and B27 minus antioxidants (Invitrogen Life Technologies).
as §1, §2
Assay 4. Assay for Test Compound Cytoxicity
Neuronal cortical cells were cultured for five days as per Assay 2 in NB media and B27 supplement.
On day six the test compounds were added to the neuronal cell cultures in NB media and B27 supplement minus antioxidants.
Test compounds were dissolved in 100% DMSO to a concentration of 2.5 mM (10 mM if excess compound was weighed out per vial—then diluted to 2.5 mM).
Test compounds were not added directly to cells, instead they were added to a 48 well ‘Drug Plate’ as comprised below:
The Drug Plate was incubated at 37° C. for 15 mins. 200 μl of each well was added in triplicate to the corresponding cell plate. The cell plate was incubated at 37 C, for 4 days.
On completion of the assay, 1/10 volume MTS was added per well of plate (ie 25 μl/250 μl). The plates were incubated at 37 C for 2 hrs, and then absorbance was read at 560 nm.

T1 sequence (P05067 672-713 limits assumed): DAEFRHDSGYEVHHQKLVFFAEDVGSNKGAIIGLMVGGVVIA
T2 sequence (P05067 672-713 limits assumed): as above

Row | SMILES | Disaggregation % Aggregate reduction at 5 μM [2] | EC50 [2] | IC50 (Aβ 1-42) | Cytotox (% viable) M17 cells at 1 μM [1] | Cytotox (% viable) M17 cells at 10 μM [1] | Cytotox (% viable) Neuronal cells at 1 μM [3] | Cytotox (% viable) Neuronal cells at 10 μM [3]
1 | CCN(CC)CCNC(=O)c1cnc2c(O)cccn2c1=O [PB 1199] | 20.4% | > 20000 nM | 1640 nM | 115.2% | 102.7% | – | –
2 | Br.CC(Br)CCn1cnc2c(O)c(Cl)cc(Cl)c2c1=O (stereo not drawn) [PB 1114] | 19.2% | > 20000 nM | – | – | – | 101% | 73%
3 | O=C(Cn1cnc2c(O)cccc2c1=O)Nc1ccccn1 [PB 1182] | 24% | > 20000 nM | 590 nM | 110.1% | 98.2% | – | –
4 | CCCNC(=O)Cn1cnc2c(O)c(I)ccc2c1=O [PB 1166] | 21.7% | > 20000 nM | 430 nM | 105% | 115.8% | – | –
5 | O=c1c2c(Cl)cc(I)c(O)c2ncn1-c1cccnc1 [PB 1164] | 26% | > 20000 nM | 240 nM | 112% | 111% | – | –
6 | O=S(=O)(O)c1ccc(-c2ccnc3c2ccc2c(-c4ccc(S(=O)(=O)O)cc4)ccnc23)cc1 [PB 68] | 44% | 8500 nM | > 10000 nM | – | – | – | –
7 | Fc1ccc(NCc2cccc3cccnc23)cc1 [PB 1195] | 19.9% | > 20000 nM | > 10000 nM | – | – | – | –
8 | Oc1ccccc1-c1cn2ccccc2n1 [PB 1173] | 10% | > 20000 nM | > 20000 nM | – | – | – | –
9 | Br.C/C=C/Cn1cnc2c(O)c(Cl)cc(Cl)c2c1=O [PB 1126] | 69% | 3700 nM | – | – | – | – | –
10 | O=C(NCc1ccc(F)cc1)c1cnc2c(O)cccn2c1=O [PB 1154] | 31% | > 20000 nM | 640 nM | 76.7% | 54.2% | – | –
11 | CCc1cnc2c(O)cccn2c1=O [PB 1124] | 8.4% | > 20000 nM | 400 nM | 96.1% | 27.1% | – | –
12 | O=c1c2c(Cl)ccc(O)c2ncn1Cc1ccccn1 [PB 1133] | 22% | > 20000 nM | 790 nM | – | – | – | –
13 | CN(C)c1ccc(-c2cc(Cl)c3cccnc3c2O)cc1 [PB 851] | – | – | – | – | – | 94% | 85%
14 | c1ccc(-c2ccccn2)nc1 [PB 898] | 32% | > 20000 nM | 230 nM | – | – | – | –

Second part, led by results:

Row | Disaggregation % Aggregate reduction at 5 μM [2] | EC50 [2] | IC50 (Aβ 1-42) | SMILES | Cytotox (% viable) M17 cells at 1 μM [1] | Cytotox (% viable) M17 cells at 10 μM [1] | Cytotox (% viable) Neuronal cells at 1 μM [3] | Cytotox (% viable) Neuronal cells at 10 μM [3]
15 | 43.3% | 11000 nM | 290 nM | CCN(CC)CCn1cnc2c(O)c(I)ccc2c1=O [PB 1163] | 106.5% | 41.4% | – | –
16 | 22% | > 20000 nM | 960 nM | O=c1c2cccc(O)c2ncn1-c1ccc(F)cc1 [PB 1156] | 92.7% | 67.5% | – | –
17 | 21.5% | > 20000 nM | > 10000 nM | COc1ccc(NCc2cccc3cccnc23)cc1 [PB 1194] | – | – | – | –
18 | 64% | 1440 nM | 310 nM | CCn1cnc2c(O)c(I)cc(I)c2c1=O [PB 1169] | – | – | – | –
19 | 49.9% | 5060 nM | 680 nM | CCCCNC(=O)c1cnc2c(O)cccn2c1=O [PB 1159] | 115% | 41.1% | – | –
20 | 57.3% | < 400 nM | 720 nM | O=c1c2cccc(O)c2ncn1Cc1ccccn1 [PB 1117] | 109.2% | 96% | – | –
21 | 49% | 5270 nM | 540 nM | CCC(C)Cn1cnc2c(O)cccc2c1=O (stereo not drawn) [PB 1184] | 102.7% | 47.2% | – | –
22 | 58% | < 400 nM | 1440 nM | O=c1c2cccc(O)c2ncn1CC1CC1 [PB 1118] | 106.8% | 88.6% | – | –
23 | 26% | 19500 nM | 480 nM | O=c1c2c(Cl)cc(I)c(O)c2ncn1Cc1ccccn1 [PB 1141] | 102.8% | 137% | – | –
24 | 62% | 4100 nM | 480 nM | CCc1cnc2c(O)cccn2c1=S [PB 1143] | 93.3% | 73.7% | – | –
25 | 35% | 9500 nM | 600 nM | O=C1c2ccccc2C(=O)N1CCn1cnc2c(O)cccc2c1=O [PB 1185] | 103.9% | 106.5% | – | –
26 | 16% | 15200 nM | 470 nM | O=c1c2c(Cl)ccc(O)c2ncn1CC1CC1 [PB 1132] | 86.3% | 57.6% | – | –
27 | 10% | 6890 nM | > 10000 nM | Oc1cccc2sc(Cc3ccccc3)nc12 [PB 1191] | – | – | – | –
28 | 45% | 6900 nM | 300 nM | CCCCCn1cnc2c(O)c(I)ccc2c1=O [PB 1176] | 86.3% | 38.5% | – | –
29 | 22% | 14700 nM | 960 nM | O=C(Nc1nc2ccc(F)cc2s1)c1cnc2c(O)cccn2c1=O [PB 1174] | 60.1% | 34.2% | – | –
30 | 53% | 4280 nM | 720 nM | O=C1c2ccccc2C(=O)N1CCn1cnc2c(O)c(I)ccc2c1=O [PB 1170] | 127.4% | 104.8% | – | –
31 | 52% | 4700 nM | 3200 nM | O=c1c2ccc(I)c(O)c2ncn1-c1ccc(F)cc1 [PB 1162] | 93.9% | 36.5% | – | –
32 | 59% | 3900 nM | 310 nM | O=c1c2ccc(I)c(O)c2ncn1Cc1cccc(Cn2cnc3c(O)c(I)ccc3c2=O)n1 [PB 1155] | – | – | – | –
